Patent publication US20080045611A1, “Methods for the therapeutic use of a carbonic anhydrase inhibitor for reducing spinal cord edema” (priority 2006, published 2008)

Test: Case: patient with ascending spinal cord edema after thoracic fracture and spinal cord injury, treated intravenously
Format: in vivo
Details: spinal cord edema on MRI after laminectomy and surgical fixation, intravenous dose of 500 mg in sterile saline, within a short period
Procedure: A patient, suffers a fractured thoracic vertebrae and spinal cord injury. […] An intravenous dose of 500 mg of acetazolamide in sterile saline is administered.

CC(=O)Nc1nnc(S(N)(=O)=O)s1 [acetazolamide]
neurological outcome (sensory and motor functions): regains sensory and motor functions in their upper extremities
